Measurements as given in paper PMC8143347, “Metabolism and Interspecies Variation of IMMH-010, a Programmed Cell Death Ligand 1 Inhibitor Prodrug” (Pharmaceutics, 2021).

Assays:
[1] = Metabolism in rat liver S9 fractions; assay type: in vitro ADME
Description: IMMH-010 metabolism was compared in human, monkey, dog, and rat liver S9 homogenates. IMMH-010 (10 μM) was incubated with liver S9 homogenate protein (0.5 mg protein/mL) and a reduced nicotinamide adenine dinucleotide phosphate (NADPH) regenerating system in a final volume of 0.2 mL Tris-HCl buffer (50 mM, pH 7.4) containing 5 mM MgCl2. The reactions were performed in triplicate. After 2 min of preincubation at 37 °C, reactions were initiated by the addition of IMMH-010 (10 μM). The samples were collected 0, 5, 10, and 20 min after incubation, 2 volumes of acetonitrile were added to terminate the reaction. After vortexing and centrifugation, IMMH-010, YPD-29B, M3, and M4 in the supernatant were analyzed by LC-MS/MS.
All statistics were calculated using GraphPad Prism 8.0 software (San Diego, CA, USA) designed for one-way ANOVA. Pharmacokinetic parameters were calculated with a non-compartmental analysis using WinNonlin Version 6.3 (Pharsight, Mountain View, CA, USA). ADMET predictor V10.0 (Simulations Plus, Inc., Lancaster, CA, USA) and Microsoft Excel (Microsoft, Redmond, WA, USA) were used to process the data (i.e., half-life (t1/2) and hepatic clearance (CLhep) determination). Data were expressed as means ± standard deviations (SD). Results were considered statistically significant if the p-value <0.05, <0.01 and <0.001.

recombinant human AADAC = molecular target: T1, recombinant human AADAC (Homo sapiens, UniProt P22760); test: IMMH-010 hydrolysis by recombinant human AADAC; assay type: in vitro ADME; conditions: 10 μM, AADAC 0.1 mg/mL, 15 min, 37 °C
T1 construct: purchased CUSABIO Biotech Co., Ltd. (Wuhan, China)
T1 sequence (P22760 1-399): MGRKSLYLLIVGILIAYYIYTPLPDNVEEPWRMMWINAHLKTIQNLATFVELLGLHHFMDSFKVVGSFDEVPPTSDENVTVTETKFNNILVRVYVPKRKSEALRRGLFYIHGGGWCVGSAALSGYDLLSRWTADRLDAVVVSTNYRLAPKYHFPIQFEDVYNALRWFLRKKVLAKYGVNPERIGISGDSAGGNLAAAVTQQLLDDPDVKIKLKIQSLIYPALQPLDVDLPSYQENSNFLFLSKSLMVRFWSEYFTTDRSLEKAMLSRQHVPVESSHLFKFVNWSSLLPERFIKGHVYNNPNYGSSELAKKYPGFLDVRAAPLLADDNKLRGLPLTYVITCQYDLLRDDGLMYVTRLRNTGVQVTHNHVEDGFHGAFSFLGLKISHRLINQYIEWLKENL
Description: (§1) To verify the role of CES1, CES2, and AADAC in human metabolism of […]-010 (10 μM) was incubated individually with recombinant human CES1, CES2, and AADAC (0.1 mg protein/mL) at 37 °C for 15 min. Lidocaine (500 μM), CPT-11 (2 μM), and phenacetin (1 mM), which are substrates of CES1, CES2, and AADAC, were used as positive controls.

B16F10 melanoma = test: Antitumor activity in B16F10 melanoma xenograft model; assay type: in vivo, mouse
Description: (§2) The antitumor activity of IMMH-010 was evaluated by B16F10 melanoma and MC38 colon carcinoma xenograft models. The B16F10 and MC38 cells were resuspended in saline (1.5 × 10^6 cells/0.2 mL saline) and injected subcutaneously into the right flanks of each mouse on day 0. The treated mice received once-daily oral administration of IMMH-010 maleate (1.25, 2.5, 5, and 10 mg/kg, n = 10) by oral gavage (PO) for 19 consecutive days, whereas the control mice received vehicle (0.5% carboxymethyl cellulose, n = 10). The mice in the positive control group received the anti-mouse PD-L1 antibody (696618M2, Bio X Cell, West Lebanon, NH, USA) at 10 mg/kg intraperitoneally every 3 days (n = 10). The first-line antineoplastic drug cyclophosphamide (CTX) was administered at doses of 80 and 40 mg/kg weekly in the B16F10 and MC38 models (n = 10), respectively. After the last treatment, on day 19, the mice were sacrificed, and the tumor and spleen were stripped and weighed. The tumor growth inhibition (TGI) was calculated as TGI = (1 − treatment group tumor weight/vehicle group tumor weight) × 100.

[2] = Body weight in MC38 model
Description: as §2

CES1 = molecular target: T2, CES1 (Homo sapiens, UniProt P23141); test: IMMH-010 hydrolysis by recombinant human CES1; assay type: in vitro ADME; design: purchased Cypex Ltd. (Dundee, United Kingdom); conditions: 10 μM, CES1 0.1 mg/mL, 15 min, 37 °C
T2 sequence (P23141 18-567): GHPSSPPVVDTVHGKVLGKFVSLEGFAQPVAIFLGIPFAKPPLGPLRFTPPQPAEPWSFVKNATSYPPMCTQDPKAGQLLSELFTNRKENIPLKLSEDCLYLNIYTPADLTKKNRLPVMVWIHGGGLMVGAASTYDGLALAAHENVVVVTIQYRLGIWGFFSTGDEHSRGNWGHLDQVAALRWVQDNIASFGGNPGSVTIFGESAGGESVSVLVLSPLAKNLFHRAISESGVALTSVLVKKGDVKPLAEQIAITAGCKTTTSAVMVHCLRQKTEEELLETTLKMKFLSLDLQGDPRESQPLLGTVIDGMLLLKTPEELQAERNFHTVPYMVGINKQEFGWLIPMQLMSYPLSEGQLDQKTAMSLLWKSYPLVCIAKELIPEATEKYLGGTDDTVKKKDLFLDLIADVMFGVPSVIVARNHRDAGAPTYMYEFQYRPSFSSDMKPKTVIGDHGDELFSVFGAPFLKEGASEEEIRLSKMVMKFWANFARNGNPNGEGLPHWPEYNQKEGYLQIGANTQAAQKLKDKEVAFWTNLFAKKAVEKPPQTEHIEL
Description: as §1

[3] = B16F10, IMMH-010 maleate 1.25 mg/kg PO once daily 19 days
[4] = B16F10, IMMH-010 maleate 2.5 mg/kg PO once daily 19 days
[5] = B16F10, IMMH-010 maleate 5 mg/kg PO once daily 19 days
[6] = B16F10, IMMH-010 maleate 10 mg/kg PO once daily 19 days

CC(C)OC(=O)[C@H](CO)NCc1cc(Cl)c(OCc2cccc(-c3ccccc3)c2Br)cc1OCc1cccnc1 [IMMH-010]
estimated CLhep ([1]; from rat liver S9): 58.4 mL/min/kg
half-life at 10 μM ([1]; pH 7.4, rat liver S9 0.5 mg protein/mL, 10 μM, NADPH): 7.1 min
remaining amount of IMMH-010 (recombinant human AADAC): 98.7%
Tumor Weight (g) X ± SD (B16F10 melanoma; [3]): 1.78 ± 1.13 g
Tumor Weight TGI (%) (B16F10 melanoma; [3]): 23%
Tumor Weight (g) X ± SD (B16F10 melanoma; [4]): 1.26 ± 0.85 g
Tumor Weight TGI (%) (B16F10 melanoma; [4]): 45%
Tumor Weight (g) X ± SD (B16F10 melanoma; [5]): 1.39 ± 0.84 g
Tumor Weight TGI (%) (B16F10 melanoma; [5]): 40%
Tumor Weight (g) X ± SD (B16F10 melanoma; [6]): 1.04 ± 0.66 g
Tumor Weight TGI (%) (B16F10 melanoma; [6]): 55%
Body Weight (g) X ± SD Finish ([2]; MC38, IMMH-010 maleate 1.25 mg/kg PO once daily 19 days): 24.3 ± 2.1 g
Body Weight (g) X ± SD Start ([2]; MC38, IMMH-010 maleate 1.25 mg/kg PO once daily): 22.2 ± 0.4 g
Body Weight (g) X ± SD Finish ([2]; MC38, IMMH-010 maleate 2.5 mg/kg PO once daily 19 days): 25.3 ± 2.3 g
Body Weight (g) X ± SD Start ([2]; MC38, IMMH-010 maleate 2.5 mg/kg PO once daily): 22.0 ± 0.6 g
Body Weight (g) X ± SD Finish ([2]; MC38, IMMH-010 maleate 5 mg/kg PO once daily 19 days): 23.7 ± 1.8 g
Body Weight (g) X ± SD Start ([2]; MC38, IMMH-010 maleate 5 mg/kg PO once daily): 21.9 ± 0.8 g
Body Weight (g) X ± SD Finish ([2]; MC38, IMMH-010 maleate 10 mg/kg PO once daily 19 days): 25.0 ± 1.7 g
Body Weight (g) X ± SD Start ([2]; MC38, IMMH-010 maleate 10 mg/kg PO once daily): 21.9 ± 0.7 g
effect on body weight ([2]; MC38 model, IMMH-010 maleate PO once a day for 19 days): without weight loss
remaining amount of IMMH-010 (CES1): 12.9%
